# Experimental data published in patent US12011450B2, “Polyethylene glycol-conjugated glucocorticoid prodrugs and compositions and methods thereof” (Board of Regents of the University of Nebraska, priority 2015, dated 2024).
# Entries after “also recorded” stand apart in the source; their conditions may differ.
# Legend:
# [1] = tested on: anti-dsDNA IgG; assay: Serum anti-dsDNA IgG level; format: in vivo, mice; conditions: 4 and 8 weeks post-treatment initiation
# [2] = tested on: MCP-1, IFN-β, IFN-γ; assay: Serum inflammatory cytokine/chemokine analysis; format: in vivo, mice; conditions: end of 2-month treatment
# Procedure: Their urine protein level was monitored weekly using Albustix Reagent Strips (Siemens Healthineers). Only mice with established nephritis, as evidenced by sustained albuminuria (≥100 mg/dL) over 2 weeks, were enrolled in the study. […] The Dex treatment (dexamethasone 21-phosphate disodium, 1.32 mg/kg, containing 1.00 mg/kg of dexamethasone, n=11) was given as daily i.v. injection. All treatments continued for 8 weeks. The body weight and proteinuria level of the animals was monitored on a weekly basis. Peripheral blood was collected from saphenous vein every 4 weeks for serum analyses. […] The surviving mice were monitored for an additional two weeks after the last treatment. The mice were then euthanized by CO2 asphyxiation, with all major tissues and organs isolated, weighted and processed at necropsy.
# For inflammatory cytokine/chemokine analysis, the data obtained were log 2 transformed to make them more normally distributed. The mixed effects model with AR(1) correlation among repeated measures over time of the same animal were used to fit the log transformed cytokine expression values for each cytokine separately. […]
# [3] = tested on: NZB/W F1 mice kidneys; assay: Histological evaluation of PAS-stained kidney sections; format: in vivo; conditions: 2-month treatment end point
# Source text: The tissues were formalin-fixed, sectioned (3 μm) and periodic-acid schiff (PAS) stained for visual examination and 4 point grading by a pathologist, who is blind to the group design.
# The periodic-acid schiff (PAS) stained kidney sections were also graded by a histopathologic score system with a 4-point scale.
# [4] = tested on: NZB/W F1 mice; conditions: mouse, in vivo
# Source text: Therefore, at necropsy, we determined the mass of the adrenal glands in each mouse.
# [5] = tested on: NZB/W F1 mice; conditions: mouse, in vivo; remark: listed apart in the source
# [6] = tested on: NZB/W F1 mice; conditions: mouse, in vivo; remark: listed apart in the source
# Source text: Therefore, we monitored peripheral white blood cell (WBC) counts and during the experimental time course.
compound,measurement,setting,value
"C[C@@H]1C[C@H]2[C@@H]3CCC4=CC(=O)C=C[C@]4(C)[C@@]3(F)[C@@H](O)C[C@]2(C)[C@@]1(O)C(=O)COP(=O)([O-])[O-].[Na+].[Na+] [Dex, dexamethasone 21-phosphate disodium]",serum anti-dsDNA IgG level,[1],significantly reduce; also recorded: significantly reduced the antibody level
same,"change in serum MCP-1, IFN-β and IFN-γ values",[2],did not induce the improvement
same,glomeruli with histological abnormities,[3],40%
same,mice graded as severe glomerulonephritis (scored 3 and 4 points),[3]; 4-point scale,more than 40%
same,adrenal gland mass,[4],significantly lower than the PEG-DiDex group
same,total serum IgG level,[5],significant drop of serum IgG value
same,peripheral white blood cell (WBC) counts,[6],"lower than the saline group, even though there was no significant difference"
